# Source: patent US20250091982A1, “Pharmaceutical Composition, Methods of Use Thereof for Treating Cocaine Addiction, and Novel Use of Hausp K444R Point Mutant Mouse” (PHARWAR BIOTECHNOLOGY, INC. PTE. LTD., priority 2022, published 2025)
# Key:
# [1] = test system: lever press induced by cocaine; experiment: Lever press test (cocaine self-administration); assay type: in vivo, mice; settings: 10 mg/kg intraperitoneally 10 min prior to cocaine self-administration; for cumulative cocaine reinforcements: FIG. 13G; for latency to first response in mice treated with cocaine: FIG. 13H; for lever press frequencies induced by cocaine treatment: FIGS. 13A to 13F
# Description: Mice were anesthetized with isoflurane (induction and maintenance at 4%-5%) for surgical implantation of a jugular vein catheter connected to a head-mounted entry port. Briefly, the right jugular vein was exposed, and the catheter tubing was inserted and secured to the vein. The catheter was passed under the skin to an incision on the head, and the port was secured to the skull with dental cement anchored by screws. Mice were given buprenorphine (0.05-0.10 mg/kg, intraperitoneal.) for analgesia and allowed to recover for 7-10 days before beginning self-administration. Catheter patency was maintained by daily infusion of 100 μl heparin (120 U/μl) through the catheter and treated with Cefazolin, 200 mg/kg, subcutaneously, to prevent bacterial infections.
# The lever press test was done in extra wide mouse operant chambers with a modified top (Med Associates, VT, USA). The chamber contained a retractable lever, a food pellet receptacle connected to a pellet dispenser, with a stimulus light above the pellet receptacle, and contained a house light. Cocaine was delivered by a syringe pump located outside the chamber, and the drug delivery tubing was connected to the mice through a swivel (Instech, Plymouth Meeting, PA, USA) and the swivel arm connected on top of the chamber to allow free movement of the mice during self-administration. All the sessions were remotely operated and recorded by MED-PC V software (Med Associates, VT, USA). Mice were pre-trained with food through pressing the levers and were food-restricted during the study. After training, mice were provided ad libitum access to water and food.
# Self-administration sessions took place once daily during the light-dark cycle for 14 consecutive days. Before starting the study, mice were allowed to acclimate to the housing for approximately 3 days. The availability of cocaine reward was indicated by illumination of the house light and pressing levers. […] Each infusion was paired with a cue (1 s illumination of the stimulus green light) followed by a 10-second time-out signaled by turning off the house light. […] Each chamber was operated under a 3-hour session, or until mice received 100 infusions (20 mg/kg) of cocaine (to prevent cocaine overdose). No treatment groups were implanted with a catheter and placed in the operant chambers with identical cues but not connected to the syringe pump and received no reward for pressing the active levers. Vehicle or inhibitor (Compound 2-2, Compound 2-3, or Compound 3-3) with a dosage of 10 mg/kg was injected intraperitoneally for 10 min prior to cocaine self-administration. The content of the vehicle is 0.5% DMSO, 25% PEG-300, 4% Tween-80, and 70.5% saline. Mice met criteria for acquisition of self-administration when they: (1) self-administered at least 30 infusions in a session; (2) >85% of responses were on the active […]; and (3) had no more than 20% variation in number of infusions between sessions. The lever press frequency and number within 3 hours indicate the cocaine addiction symptom.
# [2] = test system: HAUSP levels in SH-SY5Y cells; experiment: Western blot of HAUSP in cocaine-treated SH-SY5Y cells; settings: cocaine 200 μM with inhibitor, 24 hr; for HAUSP levels decreased by cocaine in SH-SY5Y cells (western blot): FIG. 14C; for relative protein expression ratios of HAUSP normalized with β-actin: quantified with ImageJ, FIG. 14D
# SIAH1 = target: T1, SIAH1 (Homo sapiens, UniProt Q8IUQ4); experiment: E3-ligase auto ubiquitination assay (K48-linked polyubiquitination of HAUSP mediated by SIAH1); assay type: biochemical; settings: 37° C., 1 hour, Western blot with Ub-K48 antibody, compared to vehicle; FIG. 14A, 14B
# T1 sequence (Q8IUQ4 1-282): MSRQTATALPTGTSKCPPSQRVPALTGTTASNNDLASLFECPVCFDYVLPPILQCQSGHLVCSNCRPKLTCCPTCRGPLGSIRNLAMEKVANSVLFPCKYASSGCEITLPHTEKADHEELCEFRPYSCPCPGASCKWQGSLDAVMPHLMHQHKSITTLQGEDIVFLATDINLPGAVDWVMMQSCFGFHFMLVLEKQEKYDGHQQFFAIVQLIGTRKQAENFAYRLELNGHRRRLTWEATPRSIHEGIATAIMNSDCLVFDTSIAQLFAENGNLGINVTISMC
# Description: SIAH1 mediates the K48-linked polyubiquitination of HAUSP. Therefore, for the ubiquitination assay, SIAH1 was incubated in the solution (0.25 mg/1 ml, total 100 μg) containing 20 mM Tris-HCl buffer (pH 8.0), 100 mM NaCl, 1 mM DTT and 40% glycerol and HAUSP (50 μg) was in 50 mM HEPES pH 7.5, 100 mM NaCl, 1 mM TCEP (tris (2-carboxyethyl) phosphine) buffer. […] The E3-ligase auto ubiquitination assay was performed by E3 Ligase Auto-Ubiquitilylation Assay Kit (Abcam, ab139469, UK).
# [3] = test system: locomotion activity induced by cocaine; experiment: Locomotion activity (open field test) of cocaine induced mice; assay type: in vivo; settings: compound 10 mg/kg 10 mins before cocaine 25 mg/kg i.p.; FIGS. 12A to 12C
# Source text: 8 mice from Preparation Example 2 were randomly chosen to conduct Locomotion Activity I. The open fields using white acrylic chambers measured 50 cm (length)×50 cm (width)×38 cm (height) were made from white high density and non-porous plastics. Once the Video Tracking software (ANY-maze, Stoelting Co, IL, USA) was opened, the cursor was moved to the “Single-Subject Tracking” option located under the “Data Acquisition” tab and single-clicked to open this option. The software package used in this protocol allows the tracking of up to 6 individual mice at one time. The mice were brought to open fields to acclimate to the procedure room for 30 minutes (min) prior to starting the test. The tracking plot of randomly chosen 6 mice was recorded and analyzed by ANY-maze software.
# (§1) Conditioned place preference (CPP) is a classical conditioning paradigm used in behavioral neuroscience to study the rewarding and aversive properties of drugs or other stimuli. It involves associating a particular environment or location with the experience of a rewarding or aversive stimulus, such as drugs, food, or electric shock. In CPP experiment, mice were first trained to associate one compartment of a box and then, they were placed in the neutral compartment and allowed to freely explore both compartments, and animals' preference for one compartment over the other was measured. After vehicle/Compound 2-2 (10 mg/kg)/Compound 2-3 (10 mg/kg)/Compound 3-3 (10 mg/kg) treatment for 10 mins, the well-trained mice were administrated with cocaine (25 mg/kg, i.p.) for 30 mins. The content of the vehicle is 0.5% DMSO, 25% PEG-300, 4% Tween-80, and 70.5% saline. The locomotion activity experiment was the same as the method of open field test described in Experiment 2.
# [4] = test system: cocaine conditioned place preference; experiment: Conditioned place preference (CPP) test induced by cocaine; assay type: in vivo, mice; settings: compound 10 mg/kg 10 mins before cocaine 25 mg/kg i.p.; FIG. 12D
# Source text: as §1
# [5] = test system: Fasciculus retroflexus (Fr) structure; experiment: Fr structure of cocaine induced mice after treatment; assay type: in vivo, C57BL/6JNar1 mice; settings: cocaine 25 mg/kg/day i.p. three months, then compound 25 mg/kg/day three months; for length of Fr diminished by cocaine treatment: FIG. 16, 17A; for volume of Fr diminished by cocaine treatment: FIG. 16, 17B
# Description: (§2) C57BL/6JNar1 mice of 6-months age were used in this Experiment. This Experiment included four groups: the normal control group (saline group), the cocaine+saline group, the cocaine+Compound 2-2 group, and the cocaine+Compound 3-3 group. There were 7 mice in the cocaine+Compound 2-2 group and 6 mice each in the rest of the groups. The normal control group received no experimental treatment. […] Heart rate, systolic blood pressure and mean blood pressure of all four groups were measured with a device (MK-2000ST, NP-NIBP Monitor for Mice & Rats, Muromachi, Japan) and the results thereof were shown in FIG. 15. Moreover, the Fr structure of all four groups was measured according to the method of Experiment 7 and the results thereof were shown in FIG. 16 and FIGS. 17A and 17B.
# [6] = test system: heart rate and blood pressure induced by cocaine; experiment: Heart rate and blood pressure of cocaine induced mice; assay type: in vivo, C57BL/6JNar1 mice; settings: cocaine 25 mg/kg/day i.p. three months, then compound 25 mg/kg/day three months; FIG. 15
# Description: as §2
# [7] = test system: Fasciculus retroflexus (Fr) structure; experiment: Mouse brain analysis: Fr structure after cocaine treatment; settings: wild-type mice, cocaine 25 mg/kg/day for three months, compared to control wild-type mice
# Description: Cocaine treated mice were C57BL/6j mice treated with cocaine at 10 a.m. with a dosage of 25 mg/kg/day for three months while the control mice (Hausp^WT) and Hausp^K444R mice were treated with saline. All mice were housed under conditions of controlled humidity (55±10%) and temperature (22±2° C.), with a reversed light cycle in this experiment.
# After the above treatments, all organs were obtained after mouse heart perfusion by saline, and fixed by 4% paraformaldehyde solution for 24 h for H&E, LFB, Silver, Masson's trichrome staining and immunohistochemistry (IHC). Fresh tissues were immediately homogenized in T-PER™ by tissue homogenizer (HT mini homogenizer, OPS Diagnostics LLC, USA) for Western blot analysis.
# Mouse brains were processed following SHIELD processing protocol according to Park, Y. G. et al. 2019. Mice were perfused with ice-cold PBS and then with the SHIELD perfusion solution (ice-cold 1× PBS containing 4% (w/v) PFA and GE38 (polyglycerol 3-polyglycidyl ether) supernatant). Collected brains were incubated in the same perfusion solution at 4° C. for two days. […] Images were reconstructed to a multi-channel-z stack using Imaris file converter, and the regions of the whole brain, habenula region were masked and quantified using the surface function in Imaris software version 9.5.
SMILES,cumulative cocaine reinforcements [1],latency to first response in mice treated with cocaine [1],lever press frequencies induced by cocaine treatment [1],HAUSP levels decreased by cocaine in SH-SY5Y cells (western blot) [2],relative protein expression ratios of HAUSP normalized with β-actin [2],inhibition of K48-linked polyubiquitination of HAUSP mediated by SIAH1 (SIAH1),increased locomotion activity or increased distance traveled induced by cocaine treatment [3],time spent in cocaine paired compartments (CPP test) [4],length of Fr diminished by cocaine treatment [5],volume of Fr diminished by cocaine treatment [5],blood pressure induced by cocaine [6],heart rate induced by cocaine [6],diameter of Fr ([7]; FIG. 10D),length of Fr ([7]; FIG. 10E)
"COCCNC(=O)c1ccc(Cl)cc1NC(=O)c1c(C)cc(C)cc1C [Compound 2-3, N-(5-Chloro-2-((2-methoxyethyl)carbamoyl)phenyl)-2,4,6-trimethylbenzamide]",decreased,increased,decreased,can restore,can restore,can inhibit,decreased,decreased,–,–,–,–,–,–
"COCCNC(=O)c1ccc(Cl)cc1NC(=O)c1ccccc1C [Compound 2-2, 4-Chloro-N-(2-methoxyethyl)-2-(2-methylbenzamido) benzamide]",decreased,increased,decreased,can restore,can restore,can inhibit,decreased,decreased,partially rescued,partially rescued,decreased,decreased,–,–
COC(=O)[C@H]1[C@@H](OC(=O)c2ccccc2)C[C@@H]2CC[C@H]1N2C [cocaine],–,–,–,–,–,–,–,–,–,–,–,–,decreased,decreased
"COCCNC(=O)c1ccccc1NC(=O)c1c(C)cc(C)cc1C [Compound 3-3, N-(2-((2-Methoxyethyl)carbamoyl)phenyl)-2,4,6-trimethylbenzamide]",decreased,increased,decreased,can restore,can restore,can inhibit,decreased,decreased,partially rescued,partially rescued,decreased,decreased,–,–
